{"source": "paper PMC9954146", "about": "“Anti-Leukaemic Activity of Rilpivirine Is Mediated by Aurora A Kinase Inhibition” (Cancers, 2023)", "assay_in_all_cases": "Kinase panel", "format_in_all_cases": "biochemical", "settings_in_all_cases": "read-out: % Residual Activity", "key": {"[1]": {"molecular_target": "T1, CLIK1(h) (Homo sapiens, UniProt Q8TDR2)", "T1 construct": "purchased Eurofins (KinaseProfiler)", "procedure,_shortened": "(§1)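 Cheng–Prusoff conversion of IC50 to Ki; IC50s from radioisotope-based assays at Km(ATP). Kinome-wide rilpivirine profiling.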"}, "[2]": {"molecular_target": "T2, cKit(D816V)(h) (Homo sapiens, UniProt P10721, D816V)", "T2 construct": "purchased Eurofins (KinaseProfiler)", "T2 sequence (P10721 26-976 D816V)": "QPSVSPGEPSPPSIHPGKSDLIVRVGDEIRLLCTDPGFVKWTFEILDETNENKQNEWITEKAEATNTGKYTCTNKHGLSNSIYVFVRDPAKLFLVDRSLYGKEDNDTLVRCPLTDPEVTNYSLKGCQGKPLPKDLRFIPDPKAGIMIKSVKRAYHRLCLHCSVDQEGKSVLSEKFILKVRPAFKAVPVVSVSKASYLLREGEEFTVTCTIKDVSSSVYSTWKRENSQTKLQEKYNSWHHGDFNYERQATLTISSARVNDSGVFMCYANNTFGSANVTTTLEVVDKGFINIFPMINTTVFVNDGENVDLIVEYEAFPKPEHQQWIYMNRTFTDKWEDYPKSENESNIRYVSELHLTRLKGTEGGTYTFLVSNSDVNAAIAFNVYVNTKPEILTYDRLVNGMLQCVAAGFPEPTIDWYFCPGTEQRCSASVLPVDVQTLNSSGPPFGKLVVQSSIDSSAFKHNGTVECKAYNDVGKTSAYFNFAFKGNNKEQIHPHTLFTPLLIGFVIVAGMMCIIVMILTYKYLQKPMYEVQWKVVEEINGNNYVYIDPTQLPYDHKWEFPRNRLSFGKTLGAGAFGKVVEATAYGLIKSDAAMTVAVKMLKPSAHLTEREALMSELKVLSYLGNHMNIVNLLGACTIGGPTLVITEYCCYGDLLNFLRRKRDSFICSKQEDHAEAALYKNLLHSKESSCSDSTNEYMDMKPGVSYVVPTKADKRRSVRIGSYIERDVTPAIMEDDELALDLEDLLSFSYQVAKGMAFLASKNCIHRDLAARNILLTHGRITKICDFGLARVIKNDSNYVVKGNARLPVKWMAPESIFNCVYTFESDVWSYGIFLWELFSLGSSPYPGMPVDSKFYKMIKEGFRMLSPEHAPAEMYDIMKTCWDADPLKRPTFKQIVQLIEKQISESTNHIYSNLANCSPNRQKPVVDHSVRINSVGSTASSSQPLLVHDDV", "procedure,_shortened": "as §1"}, "[3]": {"molecular_target": "T3, PRAK(h) (Homo sapiens, UniProt Q8IW41)", "T3 construct": "purchased Eurofins (KinaseProfiler)", "procedure,_shortened": "as §1"}, "[4]": {"molecular_target": "T4, NEK7(h) (Homo sapiens, UniProt Q8TDX7)", "T4 construct": "purchased Eurofins (KinaseProfiler)", "procedure,_shortened": "as §1"}, "[5]": {"molecular_target": "T5, MSSK1(h) (Homo sapiens, UniProt Q9UPE1)", "T5 construct": "purchased Eurofins (KinaseProfiler)", "procedure,_shortened": "as §1"}, "[6]": {"molecular_target": "T6, OSR1(h) (Homo sapiens, UniProt O95747)", "T6 construct": "purchased Eurofins (KinaseProfiler)", "procedure,_shortened": "as §1"}, "[7]": {"molecular_target": "T7, PAK4(h) (Homo sapiens, UniProt O96013)", "T7 construct": "purchased Eurofins (KinaseProfiler)", "procedure,_shortened": "as §1"}, "[8]": {"molecular_target": "T8, PDK1(h) (Homo sapiens, UniProt O15530)", "T8 construct": "purchased Eurofins (KinaseProfiler)", "procedure,_shortened": "as §1"}, "[9]": {"molecular_target": "T9, GRK6(h) (Homo sapiens, UniProt P43250)", "T9 construct": "purchased Eurofins (KinaseProfiler)", "procedure,_shortened": "as §1"}, "[10]": {"molecular_target": "T10, Flt3(h) (Homo sapiens, UniProt P36888)", "T10 construct": "purchased Eurofins (KinaseProfiler)", "procedure,_shortened": "as §1"}, "[11]": {"molecular_target": "T11, MARK4(h) (Homo sapiens, UniProt Q96L34)", "T11 construct": "purchased Eurofins (KinaseProfiler)", "procedure,_shortened": "as §1"}, "[12]": {"molecular_target": "T12, MOK(h) (Homo sapiens, UniProt Q9UQ07)", "T12 construct": "purchased Eurofins (KinaseProfiler)", "procedure,_shortened": "as §1"}, "[13]": {"molecular_target": "T13, PKCβII(h) (Homo sapiens, UniProt P05771)", "T13 construct": "purchased Eurofins (KinaseProfiler)", "procedure,_shortened": "as §1"}, "[14]": {"molecular_target": "T14, EphB1(h) (Homo sapiens, UniProt P54762)", "T14 construct": "purchased Eurofins (KinaseProfiler)", "T14 sequence (P54762 18-984)": "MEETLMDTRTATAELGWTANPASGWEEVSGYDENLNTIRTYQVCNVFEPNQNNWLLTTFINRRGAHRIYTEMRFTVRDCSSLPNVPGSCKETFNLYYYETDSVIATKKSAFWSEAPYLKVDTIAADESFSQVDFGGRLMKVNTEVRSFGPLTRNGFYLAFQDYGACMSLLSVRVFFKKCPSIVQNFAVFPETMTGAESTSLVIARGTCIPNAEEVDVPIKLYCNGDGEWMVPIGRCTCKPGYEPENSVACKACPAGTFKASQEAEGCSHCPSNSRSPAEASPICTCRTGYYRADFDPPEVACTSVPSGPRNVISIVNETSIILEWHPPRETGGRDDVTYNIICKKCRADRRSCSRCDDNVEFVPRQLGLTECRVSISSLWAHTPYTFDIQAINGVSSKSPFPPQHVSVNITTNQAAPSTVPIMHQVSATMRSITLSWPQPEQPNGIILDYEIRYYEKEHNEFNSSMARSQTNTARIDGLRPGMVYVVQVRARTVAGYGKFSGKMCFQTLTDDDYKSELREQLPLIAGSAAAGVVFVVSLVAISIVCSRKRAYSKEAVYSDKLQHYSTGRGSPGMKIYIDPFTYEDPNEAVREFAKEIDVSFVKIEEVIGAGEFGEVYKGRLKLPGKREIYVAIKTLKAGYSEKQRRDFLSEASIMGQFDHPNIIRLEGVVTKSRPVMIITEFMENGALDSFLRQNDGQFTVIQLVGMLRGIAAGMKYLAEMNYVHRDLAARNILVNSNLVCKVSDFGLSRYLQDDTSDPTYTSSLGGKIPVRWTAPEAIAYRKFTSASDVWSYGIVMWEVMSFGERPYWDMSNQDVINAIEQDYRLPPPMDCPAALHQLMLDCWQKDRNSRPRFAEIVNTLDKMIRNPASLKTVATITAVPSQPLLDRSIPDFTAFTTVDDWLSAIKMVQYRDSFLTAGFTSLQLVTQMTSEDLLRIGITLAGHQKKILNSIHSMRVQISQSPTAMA", "procedure,_shortened": "as §1"}, "[15]": {"molecular_target": "T15, RIPK2(h) (Homo sapiens, UniProt O43353)", "T15 construct": "purchased Eurofins (KinaseProfiler)", "procedure,_shortened": "as §1"}, "[16]": {"molecular_target": "T16, ZIPK(h) (Homo sapiens, UniProt O43293)", "T16 construct": "purchased Eurofins (KinaseProfiler)", "procedure,_shortened": "as §1"}, "[17]": {"molecular_target": "T17, Rsk4(h) (Homo sapiens, UniProt Q9UK32)", "T17 construct": "purchased Eurofins (KinaseProfiler)", "procedure,_shortened": "as §1"}, "[18]": {"molecular_target": "T18, TBK1(h) (Homo sapiens, UniProt Q9UHD2)", "T18 construct": "purchased Eurofins (KinaseProfiler)", "procedure,_shortened": "as §1"}, "[19]": {"molecular_target": "T19, PRKG2(h) (Homo sapiens, UniProt Q13237)", "T19 construct": "purchased Eurofins (KinaseProfiler)", "procedure,_shortened": "as §1"}, "[20]": {"molecular_target": "T20, SIK2(h) (Homo sapiens, UniProt Q9H0K1)", "T20 construct": "purchased Eurofins (KinaseProfiler)", "procedure,_shortened": "as §1"}, "[21]": {"molecular_target": "T21, PAR-1Bα(h) (Homo sapiens, UniProt Q7KZI7)", "T21 construct": "purchased Eurofins (KinaseProfiler)", "procedure,_shortened": "as §1"}, "[22]": {"molecular_target": "T22, Fyn(h) (Homo sapiens, UniProt P06241)", "T22 construct": "purchased Eurofins (KinaseProfiler)", "procedure,_shortened": "as §1"}, "[23]": {"molecular_target": "T23, Lck(h) activated (Homo sapiens, UniProt P06239)", "T23 construct": "purchased Eurofins (KinaseProfiler)", "procedure,_shortened": "as §1"}, "[24]": {"molecular_target": "T24, SBK1(h) (Homo sapiens, UniProt Q52WX2)", "T24 construct": "purchased Eurofins (KinaseProfiler)", "procedure,_shortened": "as §1"}, "[25]": {"molecular_target": "T25, CDK5/p35(h) (Homo sapiens, UniProt Q00535)", "T25 construct": "purchased Eurofins (KinaseProfiler)", "procedure,_shortened": "as §1"}, "[26]": {"molecular_target": "T26, TSSK1(h) (Homo sapiens, UniProt Q9BXA7)", "T26 construct": "purchased Eurofins (KinaseProfiler)", "procedure,_shortened": "as §1"}, "[27]": {"molecular_target": "T27, FGFR4(h) (Homo sapiens, UniProt P22455)", "T27 construct": "purchased Eurofins (KinaseProfiler)", "procedure,_shortened": "as §1"}, "[28]": {"molecular_target": "T28, MST3(h) (Homo sapiens, UniProt Q9Y6E0)", "T28 construct": "purchased Eurofins (KinaseProfiler)", "procedure,_shortened": "as §1"}, "[29]": {"molecular_target": "T29, LOK(h) (Homo sapiens, UniProt O94804)", "T29 construct": "purchased Eurofins (KinaseProfiler)", "procedure,_shortened": "as §1"}, "[30]": {"molecular_target": "T30, CK1γ2(h) (Homo sapiens, UniProt P78368)", "T30 construct": "purchased Eurofins (KinaseProfiler)", "procedure,_shortened": "as §1"}, "[31]": {"molecular_target": "PIP5K1a(h) (Homo sapiens, UniProt Q99755)", "procedure,_shortened": "as §1"}, "[32]": {"molecular_target": "T31, TLK2(h) (Homo sapiens, UniProt Q86UE8)", "T31 construct": "purchased Eurofins (KinaseProfiler)", "procedure,_shortened": "as §1"}, "[33]": {"molecular_target": "T32, Abl(Y253F)(h) (Homo sapiens, UniProt P00519, Y253F)", "T32 construct": "purchased Eurofins (KinaseProfiler)", "procedure,_shortened": "as §1"}, "[34]": {"molecular_target": "T33, CK2α2(h) (Homo sapiens, UniProt P19784)", "T33 construct": "purchased Eurofins (KinaseProfiler)", "T33 sequence (P19784 whole entry)": "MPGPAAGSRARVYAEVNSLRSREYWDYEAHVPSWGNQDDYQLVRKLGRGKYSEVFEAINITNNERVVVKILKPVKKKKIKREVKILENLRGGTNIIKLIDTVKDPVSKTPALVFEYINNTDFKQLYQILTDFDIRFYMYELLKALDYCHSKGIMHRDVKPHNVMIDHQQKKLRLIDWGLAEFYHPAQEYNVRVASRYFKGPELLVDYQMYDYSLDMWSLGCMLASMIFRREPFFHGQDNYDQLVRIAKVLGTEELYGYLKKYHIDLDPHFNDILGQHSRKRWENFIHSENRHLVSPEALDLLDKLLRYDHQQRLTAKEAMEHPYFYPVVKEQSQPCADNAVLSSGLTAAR", "procedure,_shortened": "as §1"}, "[35]": {"molecular_target": "T34, MRCKγ(h) (Homo sapiens, UniProt Q6DT37)", "T34 construct": "purchased Eurofins (KinaseProfiler)", "T34 sequence (Q6DT37 whole entry)": "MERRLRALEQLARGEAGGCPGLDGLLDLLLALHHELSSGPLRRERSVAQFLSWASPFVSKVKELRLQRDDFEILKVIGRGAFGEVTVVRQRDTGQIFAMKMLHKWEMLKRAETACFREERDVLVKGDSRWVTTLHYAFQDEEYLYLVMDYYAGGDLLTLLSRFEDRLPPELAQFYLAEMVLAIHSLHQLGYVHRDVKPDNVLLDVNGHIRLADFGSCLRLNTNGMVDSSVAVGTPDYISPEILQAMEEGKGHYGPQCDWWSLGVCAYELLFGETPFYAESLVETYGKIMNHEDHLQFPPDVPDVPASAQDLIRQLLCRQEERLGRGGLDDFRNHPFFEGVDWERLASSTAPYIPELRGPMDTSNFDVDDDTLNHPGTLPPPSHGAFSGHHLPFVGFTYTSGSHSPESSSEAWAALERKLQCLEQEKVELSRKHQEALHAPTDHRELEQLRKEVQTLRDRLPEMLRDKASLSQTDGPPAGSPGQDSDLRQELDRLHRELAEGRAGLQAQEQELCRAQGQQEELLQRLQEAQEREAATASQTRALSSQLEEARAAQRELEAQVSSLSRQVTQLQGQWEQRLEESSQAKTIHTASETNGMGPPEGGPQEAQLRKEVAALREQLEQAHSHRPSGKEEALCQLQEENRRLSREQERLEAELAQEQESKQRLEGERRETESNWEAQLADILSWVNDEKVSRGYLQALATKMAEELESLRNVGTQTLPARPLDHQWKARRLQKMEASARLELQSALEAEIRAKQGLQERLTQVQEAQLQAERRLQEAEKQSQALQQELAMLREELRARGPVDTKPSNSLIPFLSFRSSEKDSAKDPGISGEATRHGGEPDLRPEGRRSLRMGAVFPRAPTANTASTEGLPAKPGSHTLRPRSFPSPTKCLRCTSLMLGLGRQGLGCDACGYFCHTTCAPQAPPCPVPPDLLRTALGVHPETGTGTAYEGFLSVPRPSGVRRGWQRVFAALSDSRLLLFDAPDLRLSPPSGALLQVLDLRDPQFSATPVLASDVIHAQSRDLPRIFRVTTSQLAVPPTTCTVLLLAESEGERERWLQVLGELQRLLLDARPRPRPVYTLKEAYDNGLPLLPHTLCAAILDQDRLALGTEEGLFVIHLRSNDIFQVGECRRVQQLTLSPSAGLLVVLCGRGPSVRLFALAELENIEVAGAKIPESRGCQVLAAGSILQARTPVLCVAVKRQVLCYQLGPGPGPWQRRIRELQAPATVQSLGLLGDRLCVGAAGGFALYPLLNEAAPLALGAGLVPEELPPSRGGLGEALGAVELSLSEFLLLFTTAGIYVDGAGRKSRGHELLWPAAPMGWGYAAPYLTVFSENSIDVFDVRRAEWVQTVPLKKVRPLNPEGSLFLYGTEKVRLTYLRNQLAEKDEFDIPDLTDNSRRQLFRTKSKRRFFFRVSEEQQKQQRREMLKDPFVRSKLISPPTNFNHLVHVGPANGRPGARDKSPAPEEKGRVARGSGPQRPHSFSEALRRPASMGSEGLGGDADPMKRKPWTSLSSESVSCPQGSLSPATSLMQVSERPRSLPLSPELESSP", "procedure,_shortened": "as §1"}, "[36]": {"molecular_target": "T35, MINK(h) (Homo sapiens, UniProt Q8N4C8)", "T35 construct": "purchased Eurofins (KinaseProfiler)", "procedure,_shortened": "as §1"}, "[37]": {"molecular_target": "T36, MAP4K4(h) (Homo sapiens, UniProt O95819)", "T36 construct": "purchased Eurofins (KinaseProfiler)", "procedure,_shortened": "as §1"}, "[38]": {"molecular_target": "T37, NEK1(h) (Homo sapiens, UniProt Q96PY6)", "T37 construct": "purchased Eurofins (KinaseProfiler)", "T37 sequence (Q96PY6 whole entry)": "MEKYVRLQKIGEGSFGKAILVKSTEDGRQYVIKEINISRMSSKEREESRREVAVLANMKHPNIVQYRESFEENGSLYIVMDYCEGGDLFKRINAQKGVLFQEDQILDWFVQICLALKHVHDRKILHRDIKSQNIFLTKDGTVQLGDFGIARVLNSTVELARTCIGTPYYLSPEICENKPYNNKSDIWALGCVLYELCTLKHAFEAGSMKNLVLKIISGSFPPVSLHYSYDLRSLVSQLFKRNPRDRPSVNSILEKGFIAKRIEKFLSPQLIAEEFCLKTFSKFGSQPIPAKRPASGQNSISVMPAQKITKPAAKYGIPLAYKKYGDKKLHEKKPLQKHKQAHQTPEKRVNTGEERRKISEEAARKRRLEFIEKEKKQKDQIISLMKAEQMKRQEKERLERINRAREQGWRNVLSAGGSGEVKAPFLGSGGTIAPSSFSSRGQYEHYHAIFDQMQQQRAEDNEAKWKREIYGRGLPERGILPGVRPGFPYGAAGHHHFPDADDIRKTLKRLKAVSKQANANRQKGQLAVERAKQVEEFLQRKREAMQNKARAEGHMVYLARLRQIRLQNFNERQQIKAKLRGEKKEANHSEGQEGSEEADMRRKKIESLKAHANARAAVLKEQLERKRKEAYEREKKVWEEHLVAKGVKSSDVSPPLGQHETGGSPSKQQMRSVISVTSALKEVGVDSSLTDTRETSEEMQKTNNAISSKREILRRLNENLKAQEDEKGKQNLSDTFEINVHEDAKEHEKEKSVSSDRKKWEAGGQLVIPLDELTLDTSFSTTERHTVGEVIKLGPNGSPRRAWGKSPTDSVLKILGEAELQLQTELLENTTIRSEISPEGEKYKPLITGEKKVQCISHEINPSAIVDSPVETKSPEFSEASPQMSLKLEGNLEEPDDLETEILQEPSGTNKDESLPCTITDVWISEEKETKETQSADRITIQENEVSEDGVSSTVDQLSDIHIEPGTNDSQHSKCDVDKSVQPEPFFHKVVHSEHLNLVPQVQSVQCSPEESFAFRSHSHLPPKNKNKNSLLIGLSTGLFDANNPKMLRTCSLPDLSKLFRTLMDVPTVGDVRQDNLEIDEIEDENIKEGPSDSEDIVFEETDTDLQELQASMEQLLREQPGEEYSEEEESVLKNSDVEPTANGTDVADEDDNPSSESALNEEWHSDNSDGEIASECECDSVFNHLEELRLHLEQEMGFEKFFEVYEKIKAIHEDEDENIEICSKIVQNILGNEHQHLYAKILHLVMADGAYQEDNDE", "procedure,_shortened": "as §1"}, "[39]": {"molecular_target": "T38, TAO1(h) (Homo sapiens, UniProt Q7L7X3)", "T38 construct": "purchased Eurofins (KinaseProfiler)", "procedure,_shortened": "as §1"}}, "data": [{"compound": "Cc1cc(/C=C/C#N)cc(C)c1Nc1ccnc(Nc2ccc(C#N)cc2)n1", "note": "[rilpivirine, (E)-4-((4-((4-(2-cyanoethenyl)-2,6-dimethylphenyl)amino)pyrimidin-2-yl)amino)benzonitrile]", "values": [{"measurement": "remaining activity at 1 µM", "setting": "[1]", "result": 85, "unit": "%"}, {"measurement": "remaining activity at 1 µM", "setting": "[2]", "result": 88, "unit": "%"}, {"measurement": "remaining activity at 1 µM", "setting": "[3]", "result": 100, "unit": "%"}, {"measurement": "remaining activity at 1 µM", "setting": "[4]", "result": 110, "unit": "%"}, {"measurement": "remaining activity at 1 µM", "setting": "[5]", "result": 84, "unit": "%"}, {"measurement": "remaining activity at 1 µM", "setting": "[6]", "result": 102, "unit": "%"}, {"measurement": "remaining activity at 1 µM", "setting": "[7]", "result": 87, "unit": "%"}, {"measurement": "remaining activity at 1 µM", "setting": "[8]", "result": 85, "unit": "%"}, {"measurement": "remaining activity at 1 µM", "setting": "[9]", "result": 97, "unit": "%"}, {"measurement": "remaining activity at 1 µM", "setting": "[10]", "result": 123, "unit": "%"}, {"measurement": "remaining activity at 1 µM", "setting": "[11]", "result": 88, "unit": "%"}, {"measurement": "remaining activity at 1 µM", "setting": "[12]", "result": 92, "unit": "%"}, {"measurement": "remaining activity at 1 µM", "setting": "[13]", "result": 94, "unit": "%"}, {"measurement": "remaining activity at 1 µM", "setting": "[14]", "result": 94, "unit": "%"}, {"measurement": "remaining activity at 1 µM", "setting": "[15]", "result": 45, "unit": "%"}, {"measurement": "remaining activity at 1 µM", "setting": "[16]", "result": 85, "unit": "%"}, {"measurement": "remaining activity at 1 µM", "setting": "[17]", "result": 99, "unit": "%"}, {"measurement": "remaining activity at 1 µM", "setting": "[18]", "result": 72, "unit": "%"}, {"measurement": "remaining activity at 1 µM", "setting": "[19]", "result": 92, "unit": "%"}, {"measurement": "remaining activity at 1 µM", "setting": "[20]", "result": 57, "unit": "%"}, {"measurement": "remaining activity at 1 µM", "setting": "[21]", "result": 104, "unit": "%"}, {"measurement": "remaining activity at 1 µM", "setting": "[22]", "result": 49, "unit": "%"}, {"measurement": "remaining activity at 1 µM", "setting": "[23]", "result": 54, "unit": "%"}, {"measurement": "remaining activity at 1 µM", "setting": "[24]", "result": 100, "unit": "%"}, {"measurement": "remaining activity at 1 µM", "setting": "[25]", "result": 97, "unit": "%"}, {"measurement": "remaining activity at 1 µM", "setting": "[26]", "result": 86, "unit": "%"}, {"measurement": "remaining activity at 1 µM", "setting": "[27]", "result": 121, "unit": "%"}, {"measurement": "remaining activity at 1 µM", "setting": "[28]", "result": 93, "unit": "%"}, {"measurement": "remaining activity at 1 µM", "setting": "[29]", "result": 101, "unit": "%"}, {"measurement": "remaining activity at 1 µM", "setting": "[30]", "result": 90, "unit": "%"}, {"measurement": "remaining activity at 1 µM", "setting": "[31]", "result": 96, "unit": "%"}, {"measurement": "remaining activity at 1 µM", "setting": "[32]", "result": 115, "unit": "%"}, {"measurement": "remaining activity at 1 µM", "setting": "[33]", "result": 58, "unit": "%"}, {"measurement": "remaining activity at 1 µM", "setting": "[34]", "result": 104, "unit": "%"}, {"measurement": "remaining activity at 1 µM", "setting": "[35]", "result": 90, "unit": "%"}, {"measurement": "remaining activity at 1 µM", "setting": "[36]", "result": 80, "unit": "%"}, {"measurement": "remaining activity at 1 µM", "setting": "[37]", "result": 79, "unit": "%"}, {"measurement": "remaining activity at 1 µM", "setting": "[38]", "result": 86, "unit": "%"}, {"measurement": "remaining activity at 1 µM", "setting": "[39]", "result": 41, "unit": "%"}]}]}
